Reference: US20130196977A1, “USE OF ORGANIC COMPOUNDS” (priority 2004, published 2013)
Entries after “also recorded” stand apart in the source; their conditions may differ.

Assays:
Assay type in all cases: in vivo, rat
[1] = test system: double transgenic rats expressing human renin and human angiotensinogen (dTGR); assay: Cardiac hypertrophy index at sacrifice in dTGR; settings: for cardiac hypertrophy index score: p<0.05
Method: To circumvent this problem, transgenic rats have been developed harboring either the human renin or the human angiotensinogen genes. […] Consequently, the single transgenic rats (i.e., transgenic for either human angiotensinogen or renin) are normotensive. […] As an example, four-week-old, male dTGR are allowed to develop hypertension and are placed in metabolic cages at 5.5 weeks of age. Systolic blood pressure (tail-cuff) and 24 h albumin excretion (ELISA, CellTrend, Germany) are measured as described earlier by Muller et al. Am J Pathol. 2002, 161:1679-93 and Muller et al. Am J Pathol. 2004, 164:521-32. The dTGR are matched at week 6 in terms of 24 h albumin excretion and distributed in five groups of 19 rats each. Treatments begin when the rats are aged 6 weeks. The rats receive vehicle treatment, aliskiren at 0.3 mg/kg/day and 3 mg/kg/day (by subcutaneous minipump), valsartan 1 mg/kg/day, and valsartan 10 mg/kg/day (given in the food). The low dose of valsartan is selected as a threshold treatment to reduce mortality yet only minimally effect blood pressure and organ damage. We know from earlier studies that vehicle-treated animals would not survive beyond 8 weeks of age and thus this low dose valsartan group will serve as a control group at 9 weeks. Echocardiography (M-mode tracings in the short axis and Tissue-Doppler-imaging;, n=5-6 per group at weeks 7 and 9) is performed with a 15 MHz phased-array transducer under isoflurane anesthesia (Mazak et al. Circulation. 2004; 109:2792-800). Three measurements per heart are determined, averaged, and statistically analyzed. M-mode is performed in a LV short axis and measured according to the leading edge-method. Total wall thickness is calculated as sum of septum+left ventricular posterior wall. Rats are sacrificed at age 9 weeks. The kidneys and hearts are removed and washed with ice-cold saline, blotted dry, and weighed. Tissue preparation and immunohistological techniques are performed as previously described Muller et al. Am J Pathol. 2002, 161:1679-93. Sections are incubated with primary antibodies against rat monocytes/macrophages (ED-1, Serotec, Germany), MHC II+, CD4+, and CD86+ cells (all BD Pharmingen, Germany). Scoring of infiltrated cells is performed using the program KS 300 3.0 (Zeiss, Germany). Fifteen different areas of each kidney (n=5 in all groups) are analyzed. A mean score for each animal is computed and used to derive a group mean score. Analyses are conducted without knowledge of the specific treatment.

[2] = test system: double transgenic rats expressing human renin and human angiotensinogen (dTGR); assay: M-mode echocardiography of LV wall thickness / hypertrophy in dTGR; settings: dTGR at 9 weeks
Method: (§1) As an example, four-week-old, male dTGR are allowed to develop hypertension and are placed in metabolic cages at 5.5 weeks of age. Systolic blood pressure (tail-cuff) and 24 h albumin excretion (ELISA, CellTrend, Germany) are measured as described earlier by Muller et al. Am J Pathol. 2002, 161:1679-93 and Muller et al. Am J Pathol. 2004, 164:521-32. The dTGR are matched at week 6 in terms of 24 h albumin excretion and distributed in five groups of 19 rats each. Treatments begin when the rats are aged 6 weeks. The rats receive vehicle treatment, aliskiren at 0.3 mg/kg/day and 3 mg/kg/day (by subcutaneous minipump), valsartan 1 mg/kg/day, and valsartan 10 mg/kg/day (given in the food). The low dose of valsartan is selected as a threshold treatment to reduce mortality yet only minimally effect blood pressure and organ damage. We know from earlier studies that vehicle-treated animals would not survive beyond 8 weeks of age and thus this low dose valsartan group will serve as a control group at 9 weeks. Echocardiography (M-mode tracings in the short axis and Tissue-Doppler-imaging;, n=5-6 per group at weeks 7 and 9) is performed with a 15 MHz phased-array transducer under isoflurane anesthesia (Mazak et al. Circulation. 2004; 109:2792-800). Three measurements per heart are determined, averaged, and statistically analyzed. M-mode is performed in a LV short axis and measured according to the leading edge-method. Total wall thickness is calculated as sum of septum+left ventricular posterior wall.

[3] = test system: double transgenic rats expressing human renin and human angiotensinogen (dTGR); assay: Tissue Doppler assessment of diastolic filling (Ea/Aa) in dTGR; settings: dTGR at 9 weeks
Method: as §1
Tissue Doppler measures the velocity of the longitudinal cardiac movement at the basal septum, allowing assessment of diastolic filling Tissue Doppler measurements are performed with the sample volume in the basal septum in a four-chamber view. […] The measurements represent velocities of peak early (Ea) and late (Aa) diastolic expansion velocities. The Ea/Aa ratio is reported as an index of diastolic function.

[4] = test system: atrial natriuretic peptide (ANP) mRNA; assay: RT-PCR of left ventricular ANP mRNA in dTGR; settings: 9 weeks
Method: as §1, with “wall. For RT-PCR, LV mRNA is isolated with TRIZOL (Gibco Life Technology). RT-PCR for α-myosin heavy chain (α-MHC) and β-MHC, as well as for atrial natriuretic peptide (ANP) is carried out in 25 μL SybrGreen PCR Master Mix (Applied Biosystems, Germany) containing […] primer and 1 μL of the reverse transcription reaction in a 5700 Sequence Detection System (Applied Biosystems). […]” for “wall.”

[5] = test system: α-myosin heavy chain (α-MHC) and β-MHC mRNA; assay: RT-PCR of left ventricular α-MHC and β-MHC mRNA in dTGR; settings: left ventricle, 9 weeks
Method: as §1, with “wall. For RT-PCR, LV mRNA is isolated with TRIZOL (Gibco Life Technology). RT-PCR for α-myosin heavy chain (α-MHC) and β-MHC, as well as for atrial natriuretic peptide (ANP) is carried out in 25 μL SybrGreen PCR Master Mix (Applied Biosystems, Germany) containing […] primer and 1 μL of the reverse transcription reaction in a 5700 Sequence Detection System (Applied Biosystems). Thermal cycling conditions comprise an initial denaturation step at 95° C. for 10 min, followed by 95° C. for 15 s and 65° C. for 1 min for 40 cycles. mRNA expression is standardized to the hypoxanthine phosphoribosyl transferase gene as a housekeeping gene (primer sequences available on request).” for “wall.”

[6] = valsartan 1 mg/kg/d in the food
[7] = valsartan 10 mg/kg/d in the food
[8] = aliskiren 3 mg/kg/d, listed as Alisk

Structure (SMILES): CCCCC(=O)N(Cc1ccc(-c2ccccc2-c2nnn[nH]2)cc1)[C@H](C(=O)O)C(C)C [valsartan]
- cardiac hypertrophy index score ([1]; valsartan 10 mg/kg/d in the food from week 6, age 9 weeks): decreases
- wall thickness (septum + LV posterior wall) [2, 6]: about 3.4 mm
- left ventricular hypertrophy (in words) ([2]; valsartan 1 mg/kg/d): concentric hypertrophy; also recorded: severe left ventricular hypertrophy; also recorded: severe septal and posterior wall hypertrophy
- wall thickness (septum + LV posterior wall) [2, 7]: about 2.7 mm
- left ventricular hypertrophy (in words) ([2]; valsartan 10 mg/kg/d): markedly ameliorated
- left ventricular hypertrophy (in words) ([2]; valsartan 10 mg/kg/d, listed as Val): reduces septal and posterior wall hypertrophy substantially
- Ea/Aa ratio [3, 6]: about 0.68
- Ea/Aa ratio ([3]; valsartan 1 mg/kg/d in the food, listed as Val): 0.66
- diastolic dysfunction / diastolic filling (in words) ([3]; valsartan 1 mg/kg/d): marked diastolic dysfunction
- diastolic dysfunction / diastolic filling (in words) ([3]; valsartan 1 mg/kg/d, listed as Val): severe diastolic dysfunction
- diastolic dysfunction / diastolic filling (in words) ([3]; valsartan 10 mg/kg/d (high dose)): still present
- diastolic dysfunction / diastolic filling (in words) ([3]; valsartan 10 mg/kg/d (high dose), listed as Val): indicating diastolic dysfunction
- Ea/Aa ratio [3, 7]: about 1.0
- Ea/Aa ratio ([3]; valsartan 10 mg/kg/d in the food, listed as Val): 1.0
- LV ANP mRNA expression compared to valsartan 1 mg/kg/d treated dTGR ([4]; valsartan 10 mg/kg/d): reduces the expression of this gene, but not to a significant degree
- shift from α-MHC expression to the fetal β-MHC isoform (LV mRNA) ([5]; valsartan 10 mg/kg/d): prevent the shift

Structure (SMILES): COCCCOc1cc(C[C@@H](C[C@H](N)[C@@H](O)C[C@H](C(=O)NCC(C)(C)C(N)=O)C(C)C)C(C)C)ccc1OC [aliskiren, 2(S),4(S),5(S),7(S)—N-(3-amino-2,2-dimethyl-3-oxopropyl)-2,7-di(1-methylethyl)-4-hydroxy-5-amino-8-[4-methoxy-3-(3-methoxy-propoxy)phenyl]-octanamide]
- cardiac hypertrophy index score ([1]; aliskiren 0.3 mg/kg/d subcutaneous minipump from week 6, age 9 weeks): decreases
- cardiac hypertrophy index score ([1]; aliskiren 3 mg/kg/d subcutaneous minipump from week 6, age 9 weeks): decreases
- cardiac hypertrophy index compared to valsartan 10 mg/kg/d treated dTGR ([1]; aliskiren 3 mg/kg/d, age 9 weeks): significantly lower
- left ventricular hypertrophy (in words) ([2]; aliskiren 0.3 mg/kg/d): markedly ameliorated
- left ventricular hypertrophy (in words) ([2]; aliskiren 0.3 mg/kg/d, listed as Aliskiren): reduce left ventricular hypertrophy
- wall thickness (septum + LV posterior wall) ([2]; aliskiren 3 mg/kg/d subcutaneous minipump): about 2.2 mm
- left ventricular hypertrophy (in words) ([2]; aliskiren 3 mg/kg/d): markedly ameliorated; also recorded: lowest wall thickness values
- left ventricular hypertrophy (in words) [2, 8]: reduce left ventricular hypertrophy; also recorded: normalized LV dimensions
- Ea/Aa ratio ([3]; aliskiren 0.3 mg/kg/d (low dose) subcutaneous minipump): about 1.5
- Ea/Aa ratio ([3]; aliskiren 0.3 mg/kg/d (low dose) subcutaneous minipump, listed as Alisk): 1.5
- diastolic dysfunction / diastolic filling (in words) ([3]; aliskiren 0.3 mg/kg/d): markedly improve
- diastolic dysfunction / diastolic filling (in words) ([3]; aliskiren 0.3 mg/kg/d, listed as Alisk): appropriate diastolic filling
- Ea/Aa ratio ([3]; aliskiren 3 mg/kg/d (high dose) subcutaneous minipump): about 1.4
- Ea/Aa ratio ([3]; aliskiren 3 mg/kg/d (high dose) subcutaneous minipump, listed as Alisk): 1.5
- diastolic dysfunction / diastolic filling (in words) ([3]; aliskiren 3 mg/kg/d): markedly improve; also recorded: best diastolic filling
- diastolic dysfunction / diastolic filling (in words) [3, 8]: appropriate diastolic filling
- LV ANP mRNA expression compared to valsartan 1 mg/kg/d treated dTGR ([4]; aliskiren 0.3 mg/kg/d): reduced
- LV ANP mRNA expression compared to valsartan 1 mg/kg/d treated dTGR ([4]; aliskiren 3 mg/kg/d): reduced
- shift from α-MHC expression to the fetal β-MHC isoform (LV mRNA) ([5]; aliskiren 0.3 mg/kg/d): prevent the shift
- shift from α-MHC expression to the fetal β-MHC isoform (LV mRNA) ([5]; aliskiren 3 mg/kg/d): prevent the shift
- shift from α-MHC expression to the fetal β-MHC isoform (LV mRNA) ([5]; aliskiren 3 mg/kg/d, listed as Aliskiren): most effective
